Like-named read-outs stand apart in the source and are kept apart here.

This is an account of results in patent publication US20250090705A1, “STERILIZATION METHOD AND STERILIZATION DEVICE” (OSAKA UNIVERSITY, priority 2021, published 2025).

For data set [1] the following is noted: cited from earlier work.
In data set [2] the test system is bacterial spores (Geobacillus stearothermophilu). Kind of data set: third and fourth sterilization tests, large container (90 L), BI in sterilization bag, on-off test (turbidity of culture solution). The note with it: 90 L container, 10^6 CFU spores in glassine paper bag. The format is cell-based. How it is done:
(§1) The following description will discuss, with reference to FIGS. 2 to 5, results of sterilization tests each using the sterilization device 1 that generates peroxynitric acid gas by a nebulizer method. Here, the sterilization tests were carried out with use of the sterilization device 1 that includes (i) the peroxynitric acid gas generation section 10, which is as illustrated in FIG. 1 and which generates the peroxynitric acid gas by a nebulizer method and (ii) the sterilization treatment section 20 in which the sterilization container 21 having a capacity of 90 L is used. The peroxynitric acid solution was used in an amount of approximately 15 mL per minute in the peroxynitric acid gas generation section 10. The peroxynitric acid mist and the peroxynitric acid gas in the sterilization container 21 were configured to be recirculated into the second container 12 instead of being discharged outside through the air outlet 24.
FIG. 4 is a table showing a result of a third sterilization test using a large container. FIG. 5 is a table showing a result of a fourth sterilization test using a large container. The BI is one in which 10^6 CFU bacterial spores (Geobacillus stearothermophilu) are supported on a stainless steel disk and the stainless steel disk is in the sterilization bag 23 made of glassine paper. […]

Data set [3] has the same test system. Kind of data set: first and second sterilization tests, large container (90 L), nebulizer method, BI in sterilization bag, CFU assay. The format is cell-based. Particulars: 90 L container, 10^5 CFU spores in glassine paper bag. How it is done: as §1
FIG. 2 is a graph showing a result of a first sterilization test using a large container. FIG. 3 is a graph showing a result of a second sterilization test using a large container. […]

The test system is the same in data set [4]. Put plainly: fifth sterilization test, small container (approximately 0.3 L), BI in sterilization bag, CFU assay, survival curves, D value. The format is cell-based. The source says: Subsequently, the following description will discuss, with reference to FIGS. 6 and 7, a result of a sterilization test using the sterilization device 1 that generates peroxynitric acid gas by a nebulizer method. The capacity of the sterilization container 21 was as large as 90 L in the sterilization tests in FIGS. 2 to 5, whereas the capacity of the sterilization container 21 was as small as approximately 0.3 L in the sterilization test in FIGS. 6 and 7. The peroxide solution was used in an amount of approximately 3 mL per minute in the peroxynitric acid gas generation section 10. The peroxynitric acid gas in the sterilization container 21 is discharged outside through the air outlet 24 instead of being recirculated into the second container 12.
FIG. 6 is a graph showing a result of a fifth sterilization test using a small container. The BI is one in which 10^5 CFU bacterial spores (Geobacillus stearothermophilu) are supported on a stainless steel disk and the stainless steel disk is in the sterilization bag 23 made of glassine paper. […]
FIG. 7 is a table showing microbicidal activity determined from each of the survival curves S10, S100, S200, S600a, and S600b that are shown in FIG. 6. […] A D value [s] is a time which is calculated from a survival curve and at which the number of living microorganisms reaches 1/10. […]

Data set [5] in a line: half-time of peroxynitric acid solution versus temperature. The format is physicochemical. The note with it: pH 2.9. How it is done: FIG. 10 is a graph showing half-time of a peroxynitric acid solution. As shown in the graph, the peroxynitric acid solution that has a lower temperature (which may be ambient temperature) has a longer half-time. For example, the peroxynitric acid solution that has pH of 2.9 has a half-time of 132 minutes at 2° C. of the temperature of the peroxynitric acid solution, has a half-time of 26 minutes at 10° C. of the temperature of the peroxynitric acid solution, has a half-time of 7.8 minutes at 20° C. of the temperature of the peroxynitric acid solution, has a half-time of 2 minutes at 30° C. of the temperature of the peroxynitric acid solution, and has a half-time of 0.6 minutes at 40° C. of the temperature of the peroxynitric acid solution. The half-time of the peroxynitric acid solution thus depends on temperature.

The subject of data set [6] is spore solution (Bacillus subtilis) on pig skin. Kind of data set: sixth sterilization test, contaminated pig skin model, CFU assay. The note with it: peroxynitric acid solution 100 mM, approximately 0.3 L container, Bacillus subtilis spores. The format is cell-based. From the text: Subsequently, the following description will discuss, with reference to FIG. 8, a result of a sterilization test using the sterilization device 1 that generates peroxynitric acid gas by a nebulizer method. In the sterilization test shown in FIG. 8, with the aim of application to biological disinfection, a contaminated pig skin model was sterilized by the nebulizer method.
FIG. 8 is a graph showing a result of a sixth sterilization test using a contaminated pig skin model. A 10^6 CFU spore solution (Bacillus subtilis) was applied to pig skin that had been shaved, cleaned, and subjected to sterilization treatment in advance, and the pig skin was dried so as to be a contaminated model. Such a contaminated pig skin model was regarded as the sterilization target 22 and housed in the sterilization container 21 having a capacity of approximately 0.3 L. In so doing, a surface of the contaminated pig skin model was made perpendicular to a direction in which a gas containing the peroxynitric acid gas and the peroxynitric acid mist flowed. A molar concentration of the peroxynitric acid solution to be placed in the second container 12 was set to 100 mM. After the sterilization test, a stomachere was used to collect bacteria on not only a front surface but also a back surface of the contaminated pig skin model, and the CFU assay was carried out.

The conditions of data set [7]: 1 atmospheric pressure, cited from earlier work.
For data set [8] the following is noted: cited from earlier work. This is another data set of the same source.
Setting [9] is: peroxynitric acid solution 10 mM.
Setting [10] is: peroxynitric acid solution 600 mM.

For the compound `O=P(O)(O)O` [phosphoric acid], in data set [1] (20° C.), the vapor pressure is 4 Pa.
As for `O=S(=O)(O)O` [Sulfuric acid, sulfuric acid], the vapor pressure in data set [1] (25° C.) was 0.0067 Pa.
Turning to “peroxynitric acid [peroxynitric acid solution]”, the “time in which the BI was sterilized (on-off test)” value came out at 10 min in data set [2] (setting [9]) and 1 min in data set [2] (setting [10]). The “time in which the BI was sterilized (living microorganisms equal to or lower than detection limit)” value worked out at 3 min in data set [3] (setting [9]) and 1 min in data set [3] (setting [10]). For the same compound, the “microbicidal activity from survival curves” value in data set [4] (10, 100, 200 and 600 mM, approximately 0.3 L container, 10^5 CFU spores, CFU assay) is given as “higher molar concentration achieves higher microbicidal activity”. Moreover, the “microbicidal activity 1/D (reciprocal of D value)” value in data set [4] (calculated from survival curves S10, S100, S200, S600a, S600b) is “proportional to the molar concentration”. Further, the half-time in data set [5] (2° C.) is 132 min; in data set [5] (10° C.), 26 min; in data set [5] (20° C.) it was 7.8 min; in data set [5] (30° C.), 2 min; in data set [5] (40° C.), 0.6 min; in data set [7] (4.55° C. (277.7 K)), 97 s. For the same compound, in data set [7] (24.85° C. (298 K)), the half-time was 12 s. Further, the “time in which the contaminated pig skin model was sterilized” value in data set [6] was 3 min.
As to `O=[N+]([O-])O` [Nitric acid, nitric acid], the pKa result in data set [8] is reported as “approximately −1.4”. Moreover, the vapor pressure in data set [1] (20° C.) is on record as 6.4 kPa.
